Laboratory results as given in publication PMC11609934, “Exploration and characterization of the antimalarial activity of cyclopropyl carboxamides that target the mitochondrial protein, cytochrome b” (European Journal of Medicinal Chemistry, 2024).
Like-named read-outs stand apart in the source and are kept apart here.

Assays:
[1] = tested on: P. falciparum 3D7 parasites; experiment: P. falciparum 3D7 asexual stage LDH assay (72 h); assay type: cell-based, Plasmodium falciparum; settings: for EC50: Plasmodium falciparum, 3D7, 72 h, means and SDs, three or more experiments; for fold loss in Pf 3D7 activity relative to W499 (2): carboxamide variants versus cyclopropyl parent
Description: To establish the SAR, synthesized analogs were assessed against the asexual stage parasite (72 h) using LDH as a proxy for parasite growth inhibition. Cytotoxicity was monitored against the human HepG2 cell line using Cell TitreGlo as a metabolic marker for cell growth.
P. falciparum 3D7 Asexual Stage LDH Assay. This is a platform assay is routinely undertaken at the Walter and Eliza Hall Institute and details on the protocol has been previously published. Briefly, 10-point dilution series of the compounds were prepared in 384 well assay plates using an Echo555 (Labcyte). Appropriate volumes of 10 mM compound stocks were transferred into the assay plates such that the starting concentration was 1 μM, with a 1 in 3-fold dilution series. All wells were backfilled with DMSO to 40 nL such that this remained constant (0.1 % DMSO). The positive growth control was 0.1 % DMSO and the negative growth control was 100 nM chloroquine. The parasite inoculum (40 μL) was dispensed into plates containing compounds using a Multidrop Combi dispenser (Thermo Scientific). […] Following 72 h growth, plates were sealed with parafilm and frozen at −80 °C overnight. Plates were thawed at room temperature for at least 4 h prior to LDH activity being measured. […] Plates were shaken to ensure mixing and absorbance at 650 nm was measured in an EnVision (PerkinElmer) plate reader after 30 min of incubation at room temperature. […] The equation used is sigmoidal dose response (variable slope), Y = bottom + (top − bottom)/(1 + 10((logEC50 − X) × Hill Slope)).

[2] = Human HepG2 growth inhibition assay (Cell TitreGlo, 48 h); assay type: cell-based; settings: human, HepG2 cells, HepG2 cell growth inhibition over 48 h
Description: To establish the SAR, synthesized analogs were assessed against the asexual stage parasite (72 h) using LDH as a proxy for parasite growth inhibition. Cytotoxicity was monitored against the human HepG2 cell line using Cell TitreGlo as a metabolic marker for cell growth. Cyt b inhibitors typically have high lipophilicity, and so calculated physicochemical properties were determined, while in vitro ADME was also collected on representative analogs to gauge their suitability for efficacy studies in a 4-day P. berghei model.
Human HepG2 Growth Inhibition Assay. This is a routine assay undertaken at the Walter and Eliza Hall Institute and the method has been previously published. HepG2 cells were cultured in Dulbeccos modified eagles medium (DMEM) supplemented with 10 % fetal calf serum (FCS), in a humidified incubator at 37 °C and 5 % CO2. Assay plates (Greiner #781098, 384 well, white, tissue culture treated) were prepared by transferring appropriate volumes of 10 mM compound stocks using an Echo555 (Labcyte) such that the starting concentration was 50 μM, with a 1:2-fold dilution series. All wells were backfilled with DMSO to […] such that this remained constant (0.5 % DMSO). The positive growth control was 0.5 % DMSO and the negative growth control was 10 μM Bortezomib. HepG2 cells were seeded with 1000 cells in 50 μL DMEM with 10 % FCS into each well of the assay plates using a Multidrop Combi dispenser (Thermo Scientific). Plates were incubated at 37 °C and 5 % CO2 for 48 h. Cytotoxicity was determined using Cell Titer Glo (Promega) and calculated as a percentage using DMSO as the positive growth control and 10 μM Bortezomib as a negative growth control. EC50 values were calculated by Dotmatics 5.3 and Spotfire 7.11.1 software using a nonlinear regression four-parameter fit analysis. The equation used is sigmoidal dose response (variable slope), Y = bottom + (top − bottom)/(1 + 10((logEC50 − X) × Hill Slope)).

[3] = LDH activity of P. falciparum 3D7 parasites over 72 h, read-out: Pf 3D7 EC50 (SD)

Row | Compound | EC50 [1, 3] | fold decrease in Pf 3D7 activity relative to 17 ([1]; ratio of EC50 to compound 17) | CC50 at 48 h [2] | fold loss in Pf 3D7 activity relative to W499 (2) [1] | EC50 ([1]; read-out: Pf 3D7 EC50 (SD), LDH activity of P. falciparum 3D7 parasites over 72 h)
1 | O=C(NC1CC1)c1cccc(CN(Cc2ccccc2)C2CC2)c1 [Compound 28, 3-((Benzyl(cyclopropyl)amino)methyl)-N-cyclopropylbenzamide] | 5600 nM | 40 fold | > 40000 nM | – | –
2 | CNC(=O)c1ccc(CN(Cc2ccc(Cl)cc2Cl)C2CC2)cc1 [Compound 30] | 1180 nM | – | > 40000 nM | – | –
3 | CCNC(=O)c1ccc(CN(Cc2ccc(Cl)cc2Cl)C2CC2)cc1 [Compound 31, 4-((Cyclopropyl(2,4-dichlorobenzyl)amino)methyl)-N-ethylbenzamide] | 310 nM | – | > 40000 nM | – | –
4 | CCCNC(=O)c1ccc(CN(Cc2ccc(Cl)cc2Cl)C2CC2)cc1 [Compound 32, 4-((Cyclopropyl(2,4-dichlorobenzyl)amino)methyl)-N-propylbenzamide] | 640 nM | – | > 40000 nM | – | –
5 | CC(C)NC(=O)c1ccc(CN(Cc2ccc(Cl)cc2Cl)C2CC2)cc1 [Compound 33] | 690 nM | – | > 40000 nM | – | –
6 | CN(C)CCNC(=O)c1ccc(CN(Cc2ccc(Cl)cc2Cl)C2CC2)cc1 [Compound 35] | 7600 nM | – | 9300 nM | – | –
7 | O=C(NCCO)c1ccc(CN(Cc2ccc(Cl)cc2Cl)C2CC2)cc1 [Compound 37, 4-((Cyclopropyl(2,4-dichlorobenzyl)amino)methyl)-N-(2-hydroxyethyl)benzamide] | 2400 nM | – | > 40000 nM | approximately 25 fold | –
8 | O=C(NC1CCC1)c1ccc(CN(Cc2ccc(Cl)cc2Cl)C2CC2)cc1 [Compound 38] | 480 nM | – | > 40000 nM | 4 fold | –
9 | O=C(NC1CCCC1)c1ccc(CN(Cc2ccc(Cl)cc2Cl)C2CC2)cc1 [Compound 39] | – | – | > 40000 nM | 12 fold | 1200 nM
10 | O=C(NC1CC1)c1ccc(CN(Cc2ccccc2F)C2CC2)cc1 [Compound 42] | 250 nM | – | > 40000 nM | – | –
11 | O=C(NC1CC1)c1ccc(CN(Cc2cccc(F)c2)C2CC2)cc1 [Compound 43] | 240 nM | – | > 40000 nM | – | –
12 | O=C(NC1CC1)c1ccc(CN(Cc2ccc(F)cc2)C2CC2)cc1 [Compound 44] | 220 nM | – | > 40000 nM | – | –
13 | O=C(NC1CC1)c1ccc(CN(Cc2ccccc2Cl)C2CC2)cc1 [Compound 45, 4-(((2-Chlorobenzyl) (cyclopropyl)amino)methyl)-N-cyclopropylbenzamide] | 290 nM | – | > 40000 nM | – | –
14 | O=C(NC1CC1)c1ccc(CN(Cc2cccc(Cl)c2)C2CC2)cc1 [Compound 46, 4-(((3-Chlorobenzyl) (cyclopropyl)amino)methyl)-N-cyclopropylbenzamide] | 340 nM | – | > 40000 nM | – | –
15 | O=C(NC1CC1)c1ccc(CN(Cc2ccc(Cl)cc2)C2CC2)cc1 [Compound 47, 4-(((4-Chlorobenzyl) (cyclopropyl)amino)methyl)-N-cyclopropylbenzamide] | 210 nM | – | > 40000 nM | – | –
16 | Cc1ccccc1CN(Cc1ccc(C(=O)NC2CC2)cc1)C1CC1 [Compound 48] | 200 nM | – | > 40000 nM | – | –
17 | O=C(NC1CC1)c1ccc(CN(Cc2ccccc2C(F)(F)F)C2CC2)cc1 [Compound 49] | 220 nM | – | > 40000 nM | – | –
18 | Cc1cccc(CN(Cc2ccc(C(=O)NC3CC3)cc2)C2CC2)c1 [Compound 50] | 170 nM | – | > 40000 nM | – | –

Row | Compound | EC50 [1, 3] | fold decrease in Pf 3D7 activity relative to 17 ([1]; ratio of EC50 to compound 17) | CC50 at 48 h [2] | fold loss in Pf 3D7 activity relative to W499 (2) [1] | EC50 ([1]; read-out: Pf 3D7 EC50 (SD), LDH activity of P. falciparum 3D7 parasites over 72 h)
19 | Cc1ccc(CN(Cc2ccc(C(=O)NC3CC3)cc2)C2CC2)cc1 [Compound 51] | 150 nM | – | > 40000 nM | – | –
20 | O=C(NC1CC1)c1ccc(CN(Cc2cccc(C(F)(F)F)c2)C2CC2)cc1 [Compound 52] | 160 nM | – | > 40000 nM | – | –
21 | O=C(NC1CC1)c1ccc(CN(Cc2ccc(C(F)(F)F)cc2)C2CC2)cc1 [Compound 53] | 110 nM | – | > 40000 nM | – | –
22 | CC(C)c1cccc(CN(Cc2ccc(C(=O)NC3CC3)cc2)C2CC2)c1 [Compound 54, N-Cyclopropyl-4-((cyclopropyl(3-isopropylbenzyl)amino)methyl)benzamide] | 80 nM | – | > 40000 nM | – | –
23 | CC(C)c1ccc(CN(Cc2ccc(C(=O)NC3CC3)cc2)C2CC2)cc1 [Compound 55, N-Cyclopropyl-4-((cyclopropyl(4-isopropylbenzyl)amino)methyl)benzamide] | 110 nM | – | > 40000 nM | – | –
24 | CC(C)(C)c1ccc(CN(Cc2ccc(C(=O)NC3CC3)cc2)C2CC2)cc1 [Compound 56] | 60 nM | – | > 40000 nM | – | –
25 | COc1ccccc1CN(Cc1ccc(C(=O)NC2CC2)cc1)C1CC1 [Compound 57] | 270 nM | – | > 40000 nM | – | –
26 | COc1cccc(CN(Cc2ccc(C(=O)NC3CC3)cc2)C2CC2)c1 [Compound 58] | 490 nM | – | > 40000 nM | – | –
27 | COc1ccc(CN(Cc2ccc(C(=O)NC3CC3)cc2)C2CC2)cc1 [Compound 59] | 230 nM | – | > 40000 nM | – | –
28 | N#Cc1ccccc1CN(Cc1ccc(C(=O)NC2CC2)cc1)C1CC1 [Compound 60] | 120 nM | – | > 40000 nM | – | –
29 | N#Cc1cccc(CN(Cc2ccc(C(=O)NC3CC3)cc2)C2CC2)c1 [Compound 61] | 130 nM | – | > 40000 nM | – | –
30 | N#Cc1ccc(CN(Cc2ccc(C(=O)NC3CC3)cc2)C2CC2)cc1 [Compound 62] | 630 nM | – | > 40000 nM | – | –
31 | CN(C)c1ccc(CN(Cc2ccc(C(=O)NC3CC3)cc2)C2CC2)cc1 [Compound 63, N-Cyclopropyl-4-((cyclopropyl(4-(dimethylamino)benzyl)amino)methyl)benzamide] | 530 nM | – | > 40000 nM | – | –
32 | CN(C)c1cccc(CN(Cc2ccc(C(=O)NC3CC3)cc2)C2CC2)c1 [Compound 64, N-Cyclopropyl-4-((cyclopropyl(3-(dimethylamino)benzyl)amino)methyl)benzamide] | 320 nM | – | > 40000 nM | – | –
33 | CC(=O)Nc1ccccc1CN(Cc1ccc(C(=O)NC2CC2)cc1)C1CC1 [Compound 65, 4-(((2-Acetamidobenzyl) (cyclopropyl)amino)methyl)-N-cyclopropylbenzamide] | 7400 nM | – | > 40000 nM | – | –
34 | CC(=O)c1cccc(CN(Cc2ccc(C(=O)NC3CC3)cc2)C2CC2)c1 [Compound 68] | 110 nM | – | > 40000 nM | – | –
35 | CC(=O)c1ccc(CN(Cc2ccc(C(=O)NC3CC3)cc2)C2CC2)cc1 [Compound 69] | 900 nM | – | > 40000 nM | – | –
36 | O=C(NC1CC1)c1ccc(CN(Cc2cccc(CO)c2)C2CC2)cc1 [Compound 70, N-Cyclopropyl-4-((cyclopropyl(3-(hydroxymethyl)benzyl)amino)methyl)benzamide] | 1100 nM | – | > 40000 nM | – | –
